Values of other authors, collected in patent US8968799B2, “Time delayed release mechanism for energizing composition and method of use” (Rise-N-Shine L.L.C., priority 2006, dated 2015).

Columns and labels:
[1] = cold, fatigue, sleep deprivation
[2] = particularly as methylcobalamin; healthy men and women

## N[C@@H](Cc1ccc(O)cc1)C(=O)O [Tyrosine, 4-hydroxyphenylalanine]
[1]
  effect on cognitive performance and mood under acute stress: appears to prevent the substantial decline

## C/C1=C2/[N-][C@H]([C@H](CC(N)=O)[C@@]2(C)CCC(=O)NC[C@@H](C)OP(=O)([O-])O[C@H]2[C@@H](O)[C@@H](n3cnc4cc(C)c(C)cc43)O[C@@H]2CO)[C@]2(C)N=C(/C(C)=C3N=C(/C=C4N=C1[C@@H](CCC(N)=O)C\4(C)C)[C@@H](CCC(N)=O)[C@]\3(C)CC(N)=O)[C@@H](CCC(N)=O)[C@]2(C)CC(N)=O.[CH3-].[Co+3] [vitamin B12, methylcobalamin]
[2]
  effect on sleep time, sleep quality and daytime alertness: decrease sleep time yet improve sleep quality and daytime alertness
